Measurements: patent US20250263376A1, “(E)-N-CINNAMOYLAMINOALKANOLS WITH MELANOGENESIS INHIBITORY ACTIVITY” (Uniwersytet Jagiellonski, priority 2024, published 2025)

Experiments:
[1] = system: reconstructed human epidermis containing melanocytes MelanoDerm MEL-300-B; assay: Melanogenesis inhibition in reconstructed human epidermis containing melanocytes (MelanoDerm); format: cell-based; conditions: 14 days, MTT
Description: Melanogenesis Inhibition Studies in a Model of Reconstructed Human Epidermis Containing Melanocytes (MelanoDerm by Mattek).
The research was carried out on reconstructed human epidermis containing melanocytes MelanoDerm™ MEL-300-B from MatTek (Bratislava, Slovakia). The ratio of keratinocytes to melanocytes in the epidermis used is 10:1. Only medium purchased from the same manufacturer (EPI-100-NMM-113) was used to culture the epidermis during the experiments. Once the epidermis was obtained, it was transferred to 12-well plates containing 5 mL of medium/well. Plates were used to enable proper contact of the lower parts of the inserts with the substrate (so-called hanging-top plate). Solutions of the compounds were prepared immediately before their application. The solutions were applied to the inserts using a positive displacement pipette and then distributed using a sterile glass bulb headed Pasteur pipette. The application was repeated every 48 hours, a total of 7 applications were performed. Before the next application, each insert was rinsed with sterile DPBS and dried with a sterile cotton buds. The application was also accompanied by a change of the medium. […] The epidermis was cultured in an incubator ensuring appropriate humidity, temperature (37° C.) and CO2 concentration (5%).
The experiment was conducted for 14 days. After this time, the inserts were rinsed with DPBS and dried with a cotton swab. For the selected pool of inserts, tissue viability was assessed using the MTT (Thiazolyl Blue Tetrazolium bromide) test, the remaining ones were used to determine the amount of melanin. To assess viability, the inserts were transferred to 24-well plate containing 0.3 mL of DMEM medium with 1 mg/mL MTT and incubated for 3 hours in an incubator. The epidermis was then placed in 2 mL of isopropanol and the resulting formazan was extracted for 2 hours at room temperature. The absorbance of the samples was measured at 570 nm in a microplate reader and correlated with the absorbance of the control by the formula: % Viability=[OD (570 nm) for test compound/OD (570 nm) for control]×100. To determine the amount of melanin, the inserts were incubated in 5% sodium bicarbonate for 30 min, then dried and placed in 0.5 mL of Solvable™ reagent, which caused complete lysis of the epidermis. After heating at 95° C., the absorbance of the samples was measured at 405 nm in a microplate reader. On this basis, the reduction in the amount of melanin was calculated in relation to the control sample. The absorbance results were also correlated with a standard curve for synthetic melanin.

[2] = system: CHO-K1 cells; assay: Cytotoxicity (MTT) in CHO-K1 cells before the micronucleus test; format: cell-based, Chinese hamster; conditions: 24 hours
Description: The assay was performed using a Chinese hamster ovary cell line (CHO-K1) purchased from the American Type Culture Collection (ATCC). The cells were cultured in F-12K medium with the addition of 10% fetal bovine serum (FBS) and antibiotics (streptomycin/penicillin) in an incubator at 37° C. and 5% CO2 concentration). Before the actual micronucleus test, a cytotoxicity assessment was performed to ensure that the actual test was performed only at safe concentrations. For this purpose, cells were transferred to 96-well plates and incubated with the tested compounds for 24 hours. After this time, the MTT test was performed and cell viability was assessed in comparison to the control group (cells cultured with DMSO at the same concentration as in the case of the tested samples).

[3] = system: Balb/c 3T3 murine fibroblast cell line; assay: Phototoxicity, neutral red uptake in Balb/c 3T3 fibroblasts; conditions: for PIF (photoirritation factor): ratio of IC50 of unirradiated to irradiated cells; for cytotoxicity towards mouse fibroblasts: with and without UVA exposure
Description: d) Phototoxicity Assessment Using the Balb/c 3T3 Murine Fibroblast Cell Line
Balb/c 3T3 cells, which are an immortalized murine fibroblast cell line, were purchased at ATTC and cultured in the medium recommended by the manufacturer (DMEM GlutaMAX, newborn calf serum (BCS), antibiotics). After multiplication, cells were placed in 96-well plates, which were incubated for 24 hours, after which all wells of the plates were washed with 150 μL of balanced salt solution (HBSS). Then, after drying the plates, 100 μL of a solution of the tested compounds in HBSS with 2% FBS was added to each well and incubated for an hour. After this time, some of the plates were irradiated using the Suntest CPS+sunlight simulator from Atlas with appropriate filters cutting off radiation with a wavelength <320 nm (UVA radiation intensity 5 J/cm^2). The second part of the plates was placed in radiation-free conditions for the same period of time. After the exposure time, the liquid was removed from all plates and the wells were washed twice with 150 μL of HBSS, then supplemented with fresh culture medium and incubated for 24 hours in an incubator (37° C., 5% CO2). Viability was assessed in the neutral red uptake test, which is based on the ability of the dye to penetrate only into living cells. Dye uptake was confirmed by absorbance measurement at 540 nm. […] The appropriate coefficients were also calculated: mean phototoxic effect (MPE) and photoirritation factor (PIF). PIF is the ratio of the IC50 values of unirradiated to irradiated cells, while MPE is based on the comparison of concentration-response curves.

[4] = system: keratinocytes (HaCaT); assay: Safety, LDH test in keratinocytes; format: cell-based; conditions: 48 hours, vs Triton X-100
Description: In order to test the safety of the compounds, both normal human cells were used: keratinocytes (HaCaT), fibroblasts (BJ), primary melanocytes that occur in the skin, as well as human cancer cells: the hepatocarcinoma line HepG2 and the neuroblastoma line SH-SY5Y, which are considered a model for the assessment of hepatocytotoxicity and neurocytotoxicity. The concentrations of the tested compounds in the range of […] were used in the studies. The cell lines used in the research were purchased from the American Type Culture Collection (ATCC) and were cultured in media recommended by the manufacturer with the addition of FBS and antibiotics in an incubator ensuring appropriate culture conditions, i.e. humidity, temperature and CO2 concentration. Cells were seeded into multiwell plates and incubated with the test compounds for 48 hours. After this time, MTT and LDH tests were performed to assess cell viability. The MTT test is based on the ability to transform the substrate: [3-(4,5-dimethyl-2-thiazolyl)-2,5-diphenyl-2H-tetrazolium bromide into a colored product only by living cells. The absorbance at 570 nm, which corresponds to the absorption maximum for the product, is directly proportional to cell viability. The LDH test is based on testing the activity of the enzyme lactate dehydrogenase in the culture medium, which is released from cells as a result of damage to the cell membrane, e.g. as a result of cell death. Triton X-100 was used as a positive control in the test. The determination is colorimetric, the substrate is transformed by the released enzyme into a colored product, an increase in absorbance indicates a larger amount of the released enzyme, and thus confirms greater damage to cell membranes. Tables 7 and 8 present the results obtained, which correspond to the viability of cells incubated with the compounds in relation to the viability of cells constituting a control sample, i.e. incubated with the solvent (DMSO) at the same concentration as in the case of the groups tested in the MTT test or in relation to the results obtained for the Triton X-100 positive control in the LDH test. They indicate that the compounds are safe at the concentrations tested.

| SMILES | Viability [% control, mean ± SD] ([1]; 1.0% in 50% PEG (10 μL)) | Viability [% control, mean ± SD] ([1]; 1.0% in 50% PEG (25 μL)) | Viability [% control, mean ± SD] ([1]; 2.0% in 50% PEG (25 μL)) | % Viability [mean], CHO-K1 ([2]; 100 μM) | % Viability [mean], CHO-K1 ([2]; 150 μM) | % Viability [mean], CHO-K1 ([2]; 200 μM) | phototoxic potential [3] | PIF (photoirritation factor) [3] | cytotoxicity towards mouse fibroblasts [3] | LDH, Keratinocytes (HaCaT) ([4]; 100 μM) | LDH, Keratinocytes (HaCaT) ([4]; 150 μM) | LDH, Keratinocytes (HaCaT) ([4]; 200 μM) | LDH, Keratinocytes (HaCaT) ([4]; 250 μM) |
| --- | --- | --- | --- | --- | --- | --- | --- | --- | --- | --- | --- | --- | --- |
| O=C(/C=C/c1ccc(Cl)cc1)NCCCCCO [Compound A-111, (2E)-3-(4-chlorophenyl)-N-(5-hydroxypentyl)prop-2-enamide] | 101.45 ± 6.45 % control | 85.67 ± 7.25 % control | 106.64 ± 7.78 % control | 86.1% | 95.6% | 98.6% | do not have phototoxic potential | No phototoxicity | devoid of cytotoxicity | 4.69 percentage of positive control | 4.43 percentage of positive control | 6.49 percentage of positive control | 13.55 percentage of positive control |
| O=C(/C=C/c1ccccc1)NCCCCCCO [H-425/21, (E)-N-(6-hydroxyhexyl)cinnamic acid amide] | 87.16 ± 6.30 % control | – | – | 87.6% | 83.8% | 88.0% | – | – | – | – | – | – | – |
| O=C(/C=C/c1ccccc1)NCCCCCO [Compound A-133, (2E)-N-(5-hydroxypentyl)-3-phenylprop-2-enamide] | 101.22 ± 6.52 % control | – | – | 94.6% | 97.2% | 89.1% | do not have phototoxic potential | No phototoxicity | devoid of cytotoxicity | 3.23 percentage of positive control | 3.08 percentage of positive control | 6.38 percentage of positive control | 19.58 percentage of positive control |
| O=C(/C=C/c1ccc(Cl)cc1)NCCCO [H-330/21, (2E)-3-(4-chlorophenyl)-N-(3-hydroxypropyl)prop-2-enamide] | – | – | – | – | – | – | – | – | – | 3.66 percentage of positive control | 5.33 percentage of positive control | 17.03 percentage of positive control | 24.24 percentage of positive control |
| Cc1ccc(/C=C/C(=O)NCCCCCO)cc1 [H-415/21, (2E)-N-(5-hydroxypentyl)-3-(4-methylphenyl)prop-2-enamide] | – | – | – | 102.2% | 102.8% | 87.2% | – | – | – | 2.95 percentage of positive control | 6.70 percentage of positive control | 10.18 percentage of positive control | 18.19 percentage of positive control |
| O=C(/C=C/c1ccc(Cl)cc1)NCCO [H-427/21, (2E)-3-(4-chlorophenyl)-N-(2-hydroxyethyl)prop-2-enamide] | – | – | – | – | – | – | – | – | – | 2.76 percentage of positive control | 3.69 percentage of positive control | 6.50 percentage of positive control | 17.79 percentage of positive control |
